Reference: patent US7989460B2, “Quinazoline derivatives as angiogenesis inhibitors” (AstraZeneca AB, priority 2003, dated 2011)

How the values were obtained:
[1] = target: T1, KDR (Homo sapiens, UniProt P35968); assay: In vitro receptor tyrosine kinase inhibition test (a), enzyme assay against KDR; type: biochemical; conditions: KDR cytoplasmic domain
T1 construct: made in house; host or cells: insect cells (Spodoptera frugiperda Sf21, baculovirus)
Text: (a) In Vitro Receptor Tyrosine Kinase Inhibition Test
This assay determines the ability of a test compound to inhibit tyrosine kinase activity. DNA encoding VEGF, FGF or EGF receptor cytoplasmic domains may be obtained by total gene synthesis (Edwards M, International Biotechnology Lab 5(3), 19-25, 1987) or by cloning. These may then be expressed in a suitable expression system to obtain polypeptide with tyrosine kinase activity. […] In the case of the VEGF receptor Flt-1 (Genbank accession number X51602), a 1.7 kb DNA fragment encoding most of the cytoplasmic domain, commencing with methionine 783 and including the termination codon, described by Shibuya et al (Oncogene, 1990, 5: 519-524), was isolated from cDNA and cloned into a baculovirus transplacement vector (for example pAcYM1 (see The Baculovirus Expression System: A Laboratory Guide, L. A. King and R. D. Possee, Chapman and Hall, 1992) or pAc360 or pBlueBacHis (available from Invitrogen Corporation)). This recombinant construct was co-transfected into insect cells (for example Spodoptera frugiperda 21(5f21)) with viral DNA (eg Pharmingen BaculoGold) to prepare recombinant baculovirus. […]

[2] = target: T2, human ether-a-go-go-related-gene (hERG)-encoded potassium channel (Homo sapiens, UniProt Q12809); assay: hERG-encoded potassium channel inhibition test (d); type: cell-based; conditions: HEK cells expressing hERG-encoded channel, tail current, whole cell patch clamp
T2 construct: expressed in transfected cells; host or cells: Human embryonic kidney (HEK) cells
T2 sequence (Q12809 whole entry): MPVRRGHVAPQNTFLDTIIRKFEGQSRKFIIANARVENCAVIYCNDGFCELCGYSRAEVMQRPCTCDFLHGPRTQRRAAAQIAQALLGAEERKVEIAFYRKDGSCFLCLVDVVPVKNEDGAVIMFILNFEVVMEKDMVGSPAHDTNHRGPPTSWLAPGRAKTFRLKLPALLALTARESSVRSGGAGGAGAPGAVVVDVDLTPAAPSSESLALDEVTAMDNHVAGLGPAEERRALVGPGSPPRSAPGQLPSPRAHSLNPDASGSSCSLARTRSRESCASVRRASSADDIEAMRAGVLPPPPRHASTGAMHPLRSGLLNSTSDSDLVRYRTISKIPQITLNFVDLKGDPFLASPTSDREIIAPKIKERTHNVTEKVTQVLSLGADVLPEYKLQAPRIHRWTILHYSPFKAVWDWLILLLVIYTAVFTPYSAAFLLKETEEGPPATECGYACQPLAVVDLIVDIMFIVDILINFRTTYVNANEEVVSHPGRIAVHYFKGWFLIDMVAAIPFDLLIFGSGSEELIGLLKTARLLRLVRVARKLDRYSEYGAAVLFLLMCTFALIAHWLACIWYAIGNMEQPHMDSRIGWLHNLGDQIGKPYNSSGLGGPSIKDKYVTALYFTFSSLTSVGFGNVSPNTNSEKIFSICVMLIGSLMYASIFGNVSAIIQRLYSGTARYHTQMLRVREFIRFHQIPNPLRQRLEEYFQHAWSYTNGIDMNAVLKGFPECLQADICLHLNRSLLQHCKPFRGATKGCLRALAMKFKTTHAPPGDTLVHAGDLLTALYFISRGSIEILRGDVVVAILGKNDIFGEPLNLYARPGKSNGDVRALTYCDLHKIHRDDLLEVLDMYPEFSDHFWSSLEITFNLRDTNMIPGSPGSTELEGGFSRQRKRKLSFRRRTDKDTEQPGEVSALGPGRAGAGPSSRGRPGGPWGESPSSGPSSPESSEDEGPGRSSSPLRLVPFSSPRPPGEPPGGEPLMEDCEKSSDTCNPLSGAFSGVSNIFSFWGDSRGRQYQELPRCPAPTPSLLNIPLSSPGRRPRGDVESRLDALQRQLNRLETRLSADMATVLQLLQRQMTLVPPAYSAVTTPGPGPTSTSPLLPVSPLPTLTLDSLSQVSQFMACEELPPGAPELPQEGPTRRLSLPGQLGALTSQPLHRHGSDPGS
Experimental: d) hERG-encoded Potassium Channel Inhibition Test
This assay determines the ability of a test compound to inhibit the tail current flowing through the human ether-a-go-go-related-gene (hERG)-encoded potassium channel.
Human embryonic kidney (HEK) cells expressing the hERG-encoded channel were grown in Minimum Essential Medium Eagle (EMEM; Sigma-Aldrich catalogue number M2279), supplemented with 10% Foetal Calf Serum (Labtech International; product number 4-101-500), 10% M1 serum-free supplement (Egg Technologies; product number 70916) and 0.4 mg/ml Geneticin G418 (Sigma-Aldrich; catalogue number G7034). […]
For each cell recorded, a glass coverslip containing the cells was placed at the bottom of a Perspex chamber containing bath solution (see below) at ambient temperature ([…]). […]
The cell was recorded in the whole cell configuration of the patch clamp technique. […]
The amplitude of the hERG-encoded potassium channel tail current following the step from +40 mV to −50 mV was recorded on-line by Clampex software (Axon Instruments). […]
The effect of each concentration of test compound was quantified by expressing the tail current amplitude in the presence of a given concentration of test compound as a percentage of that in the presence of vehicle. […]

T1 sequence (P35968 786-1356 limits assumed): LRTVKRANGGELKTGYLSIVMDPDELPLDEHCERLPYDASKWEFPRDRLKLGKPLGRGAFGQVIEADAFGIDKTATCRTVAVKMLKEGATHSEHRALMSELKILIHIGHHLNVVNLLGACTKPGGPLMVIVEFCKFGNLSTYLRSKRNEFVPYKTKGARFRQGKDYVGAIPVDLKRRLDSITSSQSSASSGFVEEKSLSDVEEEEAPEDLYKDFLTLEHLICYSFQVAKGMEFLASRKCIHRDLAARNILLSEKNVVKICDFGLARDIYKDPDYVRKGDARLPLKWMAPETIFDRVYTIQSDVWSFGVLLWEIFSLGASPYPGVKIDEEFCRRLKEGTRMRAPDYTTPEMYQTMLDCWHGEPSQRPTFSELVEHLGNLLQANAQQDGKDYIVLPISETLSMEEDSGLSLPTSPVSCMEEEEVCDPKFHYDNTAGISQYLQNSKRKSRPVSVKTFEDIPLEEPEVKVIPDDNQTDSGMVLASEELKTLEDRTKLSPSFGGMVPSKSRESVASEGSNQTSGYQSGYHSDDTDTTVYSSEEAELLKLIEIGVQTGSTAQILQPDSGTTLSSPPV

Q: With `COc1cc2c(Oc3ccc4[nH]c(C)c(C)c4c3)ncnc2cc1OCCN1CCN(CC(C)=O)CC1` [Example 11, 7-{2-[4-(acetylmethyl)piperazin-1-yl]ethoxy}-4-[(2,3-dimethyl-1H-indol-5-yl)oxy]-6-methoxyquinazoline] as the compound, how does the IC50 [1] read?
A: 0.104 µM

Q: What about the IC50 [2] of the same compound?
A: 10.1 µM
